According to US20250145589A1, “PYRIDINE DERIVATIVE AND USE THEREOF” (SICHUAN HUIYU PHARMACEUTICAL CO., LTD., priority 2021, published 2025):

What was measured:
[1] = tested on: NCI-H358 cells (KRAS G12C mutant); experiment: NCI-H358 cell proliferation inhibition (CellTiter-Glo); format: cell-based; conditions: Homo sapiens, NCI-H358, 72 h; H358 cells (G12C mutation), 3 days, Table 6; read-out: NCI-H358 (IC50)
KRAS^G12C-SOS1 = KRAS^G12C-SOS1 (Homo sapiens (Human), UniProt P01116, G12C); experiment: HTRF KRAS G12C/SOS1 binding assay; conditions: Table 5
Chain of KRAS^G12C-SOS1 (P01116-2 other isoform, or with tags, fused parts or gaps G12C): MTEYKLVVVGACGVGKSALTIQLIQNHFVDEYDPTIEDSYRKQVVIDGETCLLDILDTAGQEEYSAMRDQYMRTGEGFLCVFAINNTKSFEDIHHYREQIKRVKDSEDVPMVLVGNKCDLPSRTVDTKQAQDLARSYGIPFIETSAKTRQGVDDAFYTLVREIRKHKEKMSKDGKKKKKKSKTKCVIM
How it was run: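 Compound was serially diluted five-fold over eight points, with a 2 mM DMSO stock. After anti-tag-Tb3+ and anti-tag-XL665 were added, plates were incubated 3 h at 4 °C and read by HTRF (ex 337 nm, em 620/665 nm ratio). IC50 values come from four-parameter variable-slope fits.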

PI3Kα = PI3Kα (Homo sapiens (Human), UniProt P42336); experiment: Inhibition of PI3Kα efficacy assay (ADP-Glo kinase assay); format: biochemical; conditions: Table 2; read-out: PI3Kα inhibitory activity (IC50)
Chain of PI3Kα (P42336 whole entry): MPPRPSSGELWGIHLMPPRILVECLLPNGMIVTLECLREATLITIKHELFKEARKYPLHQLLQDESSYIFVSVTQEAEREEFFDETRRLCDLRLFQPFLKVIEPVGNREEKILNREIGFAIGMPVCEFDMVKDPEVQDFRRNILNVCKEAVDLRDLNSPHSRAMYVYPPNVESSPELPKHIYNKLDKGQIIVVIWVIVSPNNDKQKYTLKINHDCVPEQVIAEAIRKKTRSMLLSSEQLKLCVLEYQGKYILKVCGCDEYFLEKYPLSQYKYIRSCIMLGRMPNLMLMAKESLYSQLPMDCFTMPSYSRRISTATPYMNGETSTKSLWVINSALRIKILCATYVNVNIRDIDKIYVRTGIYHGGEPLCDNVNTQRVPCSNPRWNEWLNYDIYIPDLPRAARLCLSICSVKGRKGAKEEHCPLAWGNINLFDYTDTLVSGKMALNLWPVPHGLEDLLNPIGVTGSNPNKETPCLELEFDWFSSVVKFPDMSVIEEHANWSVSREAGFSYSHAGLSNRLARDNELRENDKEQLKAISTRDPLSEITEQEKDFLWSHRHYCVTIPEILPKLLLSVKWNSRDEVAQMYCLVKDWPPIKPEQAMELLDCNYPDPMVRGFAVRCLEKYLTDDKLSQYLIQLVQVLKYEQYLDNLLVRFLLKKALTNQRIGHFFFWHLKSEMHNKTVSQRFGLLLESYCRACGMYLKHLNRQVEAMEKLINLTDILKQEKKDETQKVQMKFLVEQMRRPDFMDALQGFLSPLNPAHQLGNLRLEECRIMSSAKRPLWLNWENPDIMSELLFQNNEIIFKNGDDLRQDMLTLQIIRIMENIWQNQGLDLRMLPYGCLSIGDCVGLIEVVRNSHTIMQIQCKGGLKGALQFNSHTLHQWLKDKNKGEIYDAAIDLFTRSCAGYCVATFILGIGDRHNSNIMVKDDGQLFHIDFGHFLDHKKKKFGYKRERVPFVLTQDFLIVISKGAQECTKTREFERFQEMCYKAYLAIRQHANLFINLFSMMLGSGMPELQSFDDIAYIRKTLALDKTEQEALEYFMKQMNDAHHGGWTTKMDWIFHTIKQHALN
Chain of PI3Kα (P27986 whole entry partner): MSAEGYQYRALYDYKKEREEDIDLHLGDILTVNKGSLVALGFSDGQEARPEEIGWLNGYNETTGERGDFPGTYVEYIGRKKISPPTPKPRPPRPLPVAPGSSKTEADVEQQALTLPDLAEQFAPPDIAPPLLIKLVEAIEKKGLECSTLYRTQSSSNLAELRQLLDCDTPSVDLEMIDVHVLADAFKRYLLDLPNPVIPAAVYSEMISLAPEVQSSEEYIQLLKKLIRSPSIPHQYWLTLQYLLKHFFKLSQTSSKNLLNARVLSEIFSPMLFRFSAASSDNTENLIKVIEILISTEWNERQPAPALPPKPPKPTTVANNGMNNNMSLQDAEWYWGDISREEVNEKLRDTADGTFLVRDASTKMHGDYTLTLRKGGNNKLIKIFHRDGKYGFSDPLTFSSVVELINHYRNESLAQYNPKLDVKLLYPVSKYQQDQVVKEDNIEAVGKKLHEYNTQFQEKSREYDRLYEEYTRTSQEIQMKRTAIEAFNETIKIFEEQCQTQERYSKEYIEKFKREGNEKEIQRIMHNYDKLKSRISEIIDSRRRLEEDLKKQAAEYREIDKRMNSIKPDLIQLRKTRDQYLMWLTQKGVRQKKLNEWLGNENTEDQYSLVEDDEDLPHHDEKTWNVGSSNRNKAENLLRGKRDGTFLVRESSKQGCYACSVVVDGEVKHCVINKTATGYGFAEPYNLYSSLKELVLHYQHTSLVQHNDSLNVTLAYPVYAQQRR
How it was run: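 ADP-Glo luminescent detection of ADP from PI3Kα acting on PI substrate with ATP, 60 min at RT; compounds in 8-point five-fold serial dilution from 2 mM DMSO stock. IC50 from four-parameter variable-slope fit.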

PI3Kδ = PI3Kδ (Homo sapiens (Human), UniProt O00329); experiment: Inhibition of PI3Kδ efficacy assay (ADP-Glo kinase assay); format: biochemical; conditions: Table 2; read-out: PI3Kδ inhibitory activity (IC50)
Chain of PI3Kδ (O00329 whole entry): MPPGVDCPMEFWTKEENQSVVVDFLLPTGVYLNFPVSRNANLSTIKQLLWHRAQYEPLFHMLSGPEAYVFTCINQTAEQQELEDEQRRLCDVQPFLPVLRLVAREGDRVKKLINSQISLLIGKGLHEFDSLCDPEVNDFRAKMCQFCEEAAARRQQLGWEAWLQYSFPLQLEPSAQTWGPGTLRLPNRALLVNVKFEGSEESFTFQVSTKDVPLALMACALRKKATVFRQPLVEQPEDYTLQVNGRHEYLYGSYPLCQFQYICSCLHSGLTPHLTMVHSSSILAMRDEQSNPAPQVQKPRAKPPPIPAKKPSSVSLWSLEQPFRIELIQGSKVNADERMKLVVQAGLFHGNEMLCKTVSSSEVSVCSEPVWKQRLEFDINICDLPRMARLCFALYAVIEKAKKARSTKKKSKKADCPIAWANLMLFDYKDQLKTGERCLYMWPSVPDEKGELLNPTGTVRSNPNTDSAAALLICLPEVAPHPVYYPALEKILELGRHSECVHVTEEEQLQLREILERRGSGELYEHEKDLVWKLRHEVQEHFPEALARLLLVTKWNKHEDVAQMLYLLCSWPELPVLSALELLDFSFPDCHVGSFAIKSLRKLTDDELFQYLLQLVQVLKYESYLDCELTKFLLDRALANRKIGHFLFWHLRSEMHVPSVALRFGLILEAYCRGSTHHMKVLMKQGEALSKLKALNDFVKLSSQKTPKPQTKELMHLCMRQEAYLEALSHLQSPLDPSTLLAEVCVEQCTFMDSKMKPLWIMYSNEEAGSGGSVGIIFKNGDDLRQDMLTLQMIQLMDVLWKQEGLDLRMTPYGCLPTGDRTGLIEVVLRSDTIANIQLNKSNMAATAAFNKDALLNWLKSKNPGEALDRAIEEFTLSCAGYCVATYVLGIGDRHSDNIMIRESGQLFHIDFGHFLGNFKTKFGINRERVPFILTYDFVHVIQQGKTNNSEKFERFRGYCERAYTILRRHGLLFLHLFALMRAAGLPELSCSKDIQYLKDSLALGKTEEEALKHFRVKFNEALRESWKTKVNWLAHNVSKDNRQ
Chain of PI3Kδ (P27986 whole entry partner): as the sequence (P27986 whole entry partner) above
How it was run: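 Luminescent ADP-Glo readout of PI3Kδ: after a 60 min RT reaction with PI/ATP substrate, ATP depletion (40 min) and ADP detection (40 min) steps followed. Compounds tested as eight five-fold serial dilutions; inhibition rates fitted to log(inhibitor) vs. response, variable slope, for IC50.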

SMILES: COc1ncc(-c2ccc3ncnc(N4CCN(C(=O)/C=C/C(C)=O)CC4)c3c2)cc1NS(=O)(=O)c1ccccc1C [Example 93, (E)-N-(2-methoxy-5-(4-(4-(4-oxopent-2-enoyl)piperazin-1-yl)quinazolin-6-yl)pyridin-3-yl)-2-methylbenzenesulfonamide]
- IC50 [1]: 18 nM
- IC50 (KRAS^G12C-SOS1): 344 nM
- IC50 (PI3Kα): 6 nM
- IC50 (PI3Kδ): 72.9 nM
